# In patent publication US9216220B2, “Compositions and methods for thermo-sensitive nanoparticles and magnetic nanoparticles” (BOARD OF REGENTS, THE UNIVERSITY OF TEXAS SYSTEM, priority 2008, dated 2015):
# Tested on: Prostate cancer cells (i.e., JHU31)
# Experiment: Cancer cell viability, MTS assay, DOX-loaded nanoparticles
# Assay type: cell-based
# Settings: 37° C., 24 hours; nanoparticles 500 μg/ml
# Experimental: In order to investigate the pharmacological activity of the in vitro released DOX from the functionalized copolymer magnetic nanoparticles, cancer cell viability was conducted using MTS assays (Promega) according to the manufacturer's instruction. Prostate cancer cells (i.e., JHU31) were cultured to confluence, harvested by trypsinization, and dispersed in RPMI supplemented with 10% serum and 1% penicillin-streptomycin. Cells were seeded at a density of approximately 10,000 cells/well in 24-well plates for 24 hours at 37° C., and then were then incubated with nanoparticles, DOX-loaded nanoparticles, and free DOX. The concentration of functionalized copolymer magnetic nanoparticles and DOX-loaded functionalized copolymer magnetic nanoparticles was 500 μg/ml. This nanoparticle concentration was selected according to drug release results from the nanoparticles indicated above and the optimal inhibition dose of DOX on prostate cancer cell growth studies. The prostate cancer cells were incubated with each group at 37° C., 41° C., and temperature cycles between 37° C. and 41° C. (one hour at each temperature for one cycle) for 24 hours.
structure (smiles),measurement,value
"COc1cccc2c1C(=O)c1c(O)c3c(c(O)c1C2=O)C[C@@](O)(C(=O)CO)C[C@@H]3O[C@H]1C[C@H](N)[C@H](O)[C@H](C)O1 [DOX, doxorubicin]",cell viability in comparison to the control,20%
